This note sets out measurements from ChEMBL document CHEMBL1201862, “PubChem BioAssay data set” (2004).

Test in all cases: DTP human tumour cell line panel, 48 h
Assay [1] relates to UO-31.
For assay [2], the system named is UACC-257.
Assay [3] has as its system A549.
Assay [4] concerns NCI-H460.
Assay [5] concerns SF-539.
Assay [6] deals with DU-145.
Assay [7] concerns SK-OV-3.
Assay [8] has as its system NCI/ADR-RES.
Assay [9] relates to HT-29.
Assay [10] relates to RPMI-8226.
Assay [11] deals with MDA-MB-435.
The subject of assay [12] is SF-268.
Assay [13] has as its system SN12C.
In assay [14] the test system is HCT-116.
Assay [15] has as its system RXF 393.
The subject of assay [16] is SK-MEL-2.
Assay [17] concerns U-251.
For assay [18], the system named is MOLT-4.
For assay [19], the system named is Malme-3M.

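Where inhibition never reached the appropriate level, the endpoint shown equals the highest concentration tested. Otherwise, values were interpolated linearly from a five-concentration, 48-hour dose response in 96-well plates. GI50: concentration for 50% inhibition of growth.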 Active and inactive are the calls of the source. Rule as the data show it: active = GI50 up to about 1.1 µM and inactive = higher.

For the molecule `CC(C)(C)OC(=O)N1N=CCC1c1ccccc1` (stereo unspecified), the GI50 in assay [1], in assay [2], in assay [3], in [4], in [5] and in [6] was > 100 µM (inactive) throughout. Moreover, the GI50 in [7], in assay [8], in assay [9], in [10], in [11] and in assay [12] was > 100 µM (inactive) throughout. Moreover, the GI50 in assay [13], in [14] and in assay [15] was > 100 µM (inactive) throughout.
In the case of `O=C(CC(=O)C(F)(F)F)c1csc2ccccc12`, the GI50 was 27.9 µM (inactive) in assay [1]; 32.9 µM (inactive) in assay [2]; 62.2 µM (inactive) in [3]; 19.1 µM (inactive) in [4]; 31.6 µM (inactive) in [5]; 22 µM (inactive) in assay [16]. Besides, the GI50 in assay [17] was 34.7 µM (inactive); in [18], 17.8 µM (inactive); in [19] it was 26.4 µM (inactive); in assay [7], 18 µM (inactive); in [10] it was 24.8 µM (inactive); in assay [12], 30.8 µM (inactive). Further, the GI50 in assay [13] was 25 µM (inactive); in [14], 34 µM (inactive); in assay [15], 3.13 µM (inactive).
For `CC(C)=CC(=O)C1c2cccc(O)c2C(=O)c2c(O)cc(C)cc21` (stereo unspecified), the GI50 in [1] is 2.09 µM (inactive); in assay [2] it was 2.88 µM (inactive); in assay [3], 1.92 µM (inactive); in assay [4], 2.32 µM (inactive); in assay [5] it was 1.56 µM (inactive); in assay [16], 1.98 µM (inactive). The GI50 was 1.73 µM (inactive) in [17]; 4.23 µM (inactive) in [18]; 2.76 µM (inactive) in assay [19]; 2.81 µM (inactive) in [7]; 6.97 µM (inactive) in assay [9]; 3.61 µM (inactive) in [10]. Also, the GI50 in [12] is 2.12 µM (inactive); in [13], 5.71 µM (inactive); in assay [14] it was 2.14 µM (inactive); in [15] it was 2.16 µM (inactive).
For `Cn1c2ccccc2n2c3ccccc3c3nnc(N)c-3c12`, the GI50 was > 100 µM (inactive) in assay [1]; 51.1 µM (inactive) in assay [2]; > 100 µM (inactive) in assay [3]; > 60.4 µM (inactive) in [4]; 22.6 µM (inactive) in [16]; 0.673 µM (active) in assay [17]. Besides, the GI50 in [18] was 7.67 µM (inactive); in assay [19], 10.5 µM (inactive); in assay [6], 33.7 µM (inactive); in assay [7] it was > 95.1 µM (inactive); in [8], > 100 µM (inactive); in [9] it was > 100 µM (inactive). Besides, the GI50 was > 100 µM (inactive) in [10]; > 88.7 µM (inactive) in assay [11]; 0.589 µM (active) in [12]; 0.757 µM (active) in [13]; 35.2 µM (inactive) in assay [14]; 22.7 µM (inactive) in [15].
On to `CCCCCCC(C)OC(=O)/C=C(\CC(=O)OC(C)CCCCCC)C(=O)OC(C)CCCCCC` (stereo unspecified), for which the GI50 in assay [1], in assay [2], in [3], in assay [4], in [5] and in assay [16] was > 100 µM (inactive) throughout. For the same molecule, the GI50 in [17], in [18], in [19], in [7], in assay [9] and in assay [10] was > 100 µM (inactive) throughout. Also, the GI50 in [12], in assay [13], in assay [14] and in [15] was > 100 µM (inactive) each time.
As for `CSc1ncc2c(n1)-c1ccccc1OC2NC(C)(C)C` (stereo unspecified), the GI50 in [1] was 63.4 µM (inactive); in [2], > 100 µM (inactive); in assay [3], > 100 µM (inactive); in assay [4], > 100 µM (inactive); in [5], > 100 µM (inactive); in [17] it was > 100 µM (inactive). Further, the GI50 in assay [18] is 47.2 µM (inactive); in assay [19], > 100 µM (inactive); in assay [6], > 100 µM (inactive); in assay [7], 91.2 µM (inactive); in assay [9], 77.6 µM (inactive); in [10], 57.7 µM (inactive). The GI50 in [11] is > 100 µM (inactive); in assay [12], 87.3 µM (inactive); in assay [13] it was > 100 µM (inactive); in [14], > 100 µM (inactive); in assay [15], 98.4 µM (inactive).
Take `C=C(CS(=O)(=O)c1ccccc1)[P+](c1ccccc1)(c1ccccc1)c1ccccc1`: the GI50 in [1] was 27.5 µM (inactive); in assay [2] it was 8.93 µM (inactive); in [3], 34.3 µM (inactive); in assay [4] it was 22.1 µM (inactive); in [5], 23.5 µM (inactive); in [16], > 100 µM (inactive). For the same molecule, the GI50 in [17] is > 10 µM (inactive); in assay [18], 16.6 µM (inactive); in [19], 12.1 µM (inactive); in assay [7], 27.3 µM (inactive); in assay [9], 18.2 µM (inactive); in [10], 3.06 µM (inactive). Besides, the GI50 in assay [12] was 2.72 µM (inactive); in [13], 12.3 µM (inactive); in assay [14], 12.7 µM (inactive); in [15], 19.2 µM (inactive).
Turning to `O=C1Nc2nc3ccccc3n2N=C2CCCC12` (stereo unspecified), the GI50 in assay [1], in assay [2], in [3], in assay [4], in [5] and in assay [16] was > 100 µM (inactive) throughout. The GI50 in assay [17], in assay [18], in assay [19], in assay [7], in [9] and in assay [10] was > 100 µM (inactive) throughout. For the same molecule, the GI50 in [12], in [13], in [14] and in assay [15] was > 100 µM (inactive) in each case.
As to `Cc1nc2ccccc2c(=O)n1NC(=S)Nc1ccccc1`, the GI50 was 88.9 µM (inactive) in [1]; > 100 µM (inactive) in [2]; > 100 µM (inactive) in [3]; > 100 µM (inactive) in assay [4]; > 100 µM (inactive) in [5]; > 100 µM (inactive) in [16]. In addition, the GI50 in assay [17], in assay [18], in assay [19], in [7], in assay [9] and in assay [10] was > 100 µM (inactive) throughout. Further, the GI50 in assay [12] is > 100 µM (inactive); in assay [13] it was > 100 µM (inactive); in [14], > 100 µM (inactive); in [15], 75.7 µM (inactive).
For `COc1ccc(C(=O)Nc2ccc(O)c(=O)cc2)cc1`, the GI50 was 20.9 µM (inactive) in assay [1]; 40.6 µM (inactive) in assay [2]; 43.9 µM (inactive) in assay [3]; 15.3 µM (inactive) in [4]; 33.2 µM (inactive) in assay [5]; 50.1 µM (inactive) in [16]. Also, the GI50 in assay [17] is 38.7 µM (inactive); in [19], 43.9 µM (inactive); in [6] it was 25.6 µM (inactive); in assay [8], 42.3 µM (inactive); in assay [9], 20.8 µM (inactive); in assay [10], 26.9 µM (inactive). In addition, the GI50 is 43.4 µM (inactive) in assay [11]; 21 µM (inactive) in assay [12]; 36.5 µM (inactive) in assay [13]; 33.1 µM (inactive) in assay [14]; 13.6 µM (inactive) in assay [15].
For `C=CCCC(=O)N1CCC(C(=O)OCC)C1=O` (stereo unspecified), the GI50 in assay [1], in assay [2], in [3], in assay [5], in assay [16] and in assay [17] was > 100 µM (inactive) each time. The GI50 in [18], in assay [19], in [6], in assay [7], in assay [8] and in assay [11] was > 100 µM (inactive) in each case. Further, the GI50 in [12], in assay [13], in [14] and in assay [15] was > 100 µM (inactive) throughout.
As for `CC(C)(C)OC(=O)NCC(CNC(=O)OC(C)(C)C)C(N)=O`, the GI50 in assay [1], in assay [2], in assay [3], in [4], in [5] and in assay [17] was > 100 µM (inactive) each time. Besides, the GI50 in assay [18], in assay [19], in [6], in [7], in assay [8] and in assay [9] was > 100 µM (inactive) throughout. In addition, the GI50 in [10], in assay [11], in [12], in assay [13], in assay [14] and in [15] was > 100 µM (inactive) throughout.

The term GI50 denotes the concentration that inhibits growth by half.
